Assay results published in patent publication US20120238105A1, “FORMULATIONS FOR THE PRODUCTION OF ELECTRONIC DEVICES” (Merck Patent GmbH, priority 2009, published 2012).

Experiment: solubility of matrix compounds for producing devices from solution
Format: physicochemical
Details: compounds dissolved in toluene or chlorobenzene for spin coating of the emission layer (matrix with 5% by weight emitter)
Protocol: Materials according to the invention are used from solution, where they result in simple devices having nevertheless good properties. The production of such components is based on the production of polymeric light-emitting diodes (PLEDs), which has already been described many times in the literature (for example in WO 2004/037887 A2). In the present case, the compounds according to the invention are dissolved in toluene or chlorobenzene. The concentration employed in the examples given here is 20% by weight of the emitter (T-1 or compound 18) and 80% by weight of the matrix materials (compounds 5 to 17). The typical solids content of such solutions is between 16 and 25 g/l if, as here, the typical layer thickness of 80 nm for a device is to be achieved by means of spin coating.
The concentration employed in the examples given here is 5% by weight of the emitter (SEB-095, Merck) and 95% by weight of the matrix materials (compounds 28 and 29). The typical solids content of such solutions is […] if, as here, the typical layer thickness of 50 nm for a device is to be achieved by means of spin coating.
With `c1ccc(-c2cc(-c3ccccc3)cc(-c3c4ccccc4c(-c4cccc5c4ccc4cc6ccccc6cc45)c4ccccc34)c2)cc1` [Compound 28] the solubility was “improved solubility”. With `c1ccc(-c2c3ccccc3c(-c3cccc4c3ccc3cc5ccccc5cc34)c3ccccc23)cc1` [Compound 25] the solubility was “poor solubility”. In the case of `c1ccc(-c2cc(-c3ccccc3)cc(-c3cccc(-c4c5ccccc5c(-c5cccc6c5ccc5cc7ccccc7cc56)c5ccccc45)c3)c2)cc1` [Compound 29], the solubility is reported as “improved solubility”. In the case of `c1ccc(-c2cccc(-c3c4ccccc4c(-c4cccc5c4ccc4cc6ccccc6cc45)c4ccccc34)c2)cc1` [Compound 27], the solubility is reported as “poor solubility”.
